According to paper PMC10690091 (Cancer Research, 2023):

Assays:
[1] = test system: ER transcriptional activity; assay: RNA-seq ER-regulated gene expression in MCF7 and CAMA-1 cells; format: cell-based, human; conditions: 100 nmol/L + 1 nmol/L estradiol, 24 hours
Method: MCF7 and CAMA-1 cells were seeded into 6-well microplates in phenol red-free RPMI-1640 medium (Invitrogen) containing 2 mmol/L L-glutamine and 5% (volume/volume, v/v) charcoal-stripped FBS (Sigma). […] Samples were harvested in 1 mL of QIAzol lysis buffer and snap-frozen. Snap-frozen tissue from PDX studies was homogenized and resuspended in QIAzol lysis buffer. RNA was extracted using RNeasy 96 QIAcube HT total RNA Cell with DNAse treatment, and samples randomized over 96-well plates. RNA was quantified using the Qubit RNA BR kit (Q10213 Invitrogen), per the manufacturer's instructions.
[…], RNA integrity was analyzed on a TapeStation 4200 using the RNA 6000 Nano Kit (5067 1511, Agilent), according to the manufacturers’ instructions. The Illumina Truseq stranded mRNA library was generated by the Cancer Research UK Cambridge Institute Genomic core facility, and sequencing of cell lines was performed on the Illumina Hiseq4000 platform, providing single-end 50 base pair reads and around 20 million reads per sample. PDX samples were sequenced using Illumina NovaSeq600, providing paired-end 100 base pair reads and around 34 million reads per sample.
Quality control and gene expression quantification of RNA sequencing (RNA-seq) were performed using the RNA-seq pipeline implemented in bcbio-nextgen (https://bcbio-nextgen.readthedocs.org/en/latest/). Reads were aligned to the University of California (Santa Cruz, CA) Homo sapiens GRCh38 genome build, augmented with transcript information from Ensembl release 86 using HiSat2 ([31]). Alignments were evaluated for evenness of coverage, ribosomal RNA content, genomic context of alignments, and complexity, using a combination of FastQC, Qualimap, and custom computational tools ([32]). Transcripts per million measurements per isoform were generated by quasi-alignment using Salmon and were used to estimate the abundance of genes ([33]). The aggregated gene counts were used for differential gene expression analyses using DESeq2 ([34]).

[2] = biological target: T1, ER in Ishikawa endometrial cancer cell line (Homo sapiens, UniProt P03372); assay: ER degradation and agonism (PgR expression) in Ishikawa cells; format: cell-based
T1 sequence (P03372 1-595): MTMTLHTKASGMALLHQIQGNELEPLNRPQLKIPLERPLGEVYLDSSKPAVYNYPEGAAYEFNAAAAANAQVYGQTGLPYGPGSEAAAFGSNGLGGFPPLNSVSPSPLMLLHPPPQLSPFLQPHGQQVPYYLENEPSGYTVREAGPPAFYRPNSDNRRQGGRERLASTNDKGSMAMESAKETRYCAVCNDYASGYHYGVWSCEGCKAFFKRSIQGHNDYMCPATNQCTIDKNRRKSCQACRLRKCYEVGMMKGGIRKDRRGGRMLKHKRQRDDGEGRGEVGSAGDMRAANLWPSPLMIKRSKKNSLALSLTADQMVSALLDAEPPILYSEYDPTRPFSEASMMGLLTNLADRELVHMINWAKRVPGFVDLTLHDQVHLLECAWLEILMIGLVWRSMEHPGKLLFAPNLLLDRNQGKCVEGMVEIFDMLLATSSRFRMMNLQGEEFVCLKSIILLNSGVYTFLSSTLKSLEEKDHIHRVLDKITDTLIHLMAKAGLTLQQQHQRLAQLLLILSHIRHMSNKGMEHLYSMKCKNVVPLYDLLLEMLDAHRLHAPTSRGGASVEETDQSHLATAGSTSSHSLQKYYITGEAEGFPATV
Method: Cells were seeded into 12-well tissue culture-treated plates (0.5×10^6 cells/well) in phenol red-free RPMI medium containing 5% (v/v) charcoal-stripped FBS.
Cell lysates were loaded on NuPAGE 4% to 12% Bis-Tris Midi Protein Gels, transferred to nitrocellulose membranes and immunoblotted with anti-ER antibody (clone SP1, Thermo Fisher Scientific). To detect ER agonism, Ishikawa cells were incubated in media containing 5% (v/v) double charcoal-stripped FBS, achieved by stripping FBS using activated charcoal (C9157, Sigma). Blots were probed with anti-PgR antibody (clone 636, Dako) then horseradish peroxidase secondary antibody (anti-mouse, 7076 Cell Signaling Technology or anti-rabbit, 7070 Cell Signaling Technology). Protein levels were measured on the G-box using Pierce West Dura and West Femto chemiluminescent reagents and Syngene software.

CAMA-1 cells = assay: Sytox Green proliferation assay, CAMA-1; format: cell-based, human; conditions: 7-day proliferation
Method: MCF7 and CAMA-1 cells were seeded into 96-well microplates in phenol red-free RPMI-1640 medium containing 2 mmol/L L-glutamine and 5% (v/v) charcoal-stripped FBS at 4×10^3 and 8×10^3 cells/well, based on the doubling time of each cell line. Plates were incubated for 24 hours (37°C; 5% CO2) and a 10-point concentration range of selected compounds was dispensed onto the cells. Dimethyl sulfoxide (DMSO) was dispensed into control wells to give a 0.1% final concentration. One plate was untreated, as a day 0 control. […] were counted at days 0 and 7 (or day 6 for Y537S ESR1m MCF7 cells) using Sytox Green nucleic assay stain (180 nmol/L per well). Green (dead) cells were counted at days 0 and 7 using an Acumen Explorer (TTP Labtech) or Cellinsight imager (Thermo Fisher Scientific). Saponin 0.045% (weight/volume) was added to permeabilize the cells overnight, permitting total cell count. The number of live cells was calculated by subtracting dead cells from the total cell count, and curve-fitted using GraphPad Prism. Average cell counts from the day 0 plate were used to determine 0% cell growth. A dose–response curve was plotted using non-linear regression to determine the IC50 and bottom-of-curve values. Viability assay methods are described in Supplementary Methods.

[3] = test system: MCF7 palbociclib-resistant cell lines (PC1, PC6, PC8); assay: Cell Titer Glo viability in palbociclib-resistant MCF7 lines; format: cell-based, human; conditions: 7 days
Method: B) Viability of CTC174 PDX-derived […]
organoids treated with the indicated drugs for 144 hours. Mean ± standard error of the mean (one experiment using six independent CTC174 organoid lines in three technical replicates). P values were calculated using two-tailed paired t tests of biological replicates. C) Immunoblots of CTC174 PDX tumors and quantification of ER, pS6, S6, or PCNA following treatment. Mean ± standard deviation (n=5). p values were calculated using ANOVA tests. D) Genetic backgrounds for cell lines with putative mechanism of resistance to palbociclib indicated for each cell line. Combination matrix plots […]
palbociclib or abemaciclib at indicated doses for 7 days using Cell Titer Glo viability assay. Values represent measured cell viability normalized to Day 0 (treatment day) and dimethyl sulfoxide control at Day 7. […]
protein levels measured by western blot. […]
dependent kinase 4/6 (inhibitor); Ctrl, control; del, deletion; ER, estrogen receptor; ESR1, estrogen receptor 1 gene; Everol, everolimus; MCL1, induced myeloid leukemia cell differentiation protein; mut, mutation; nd, not determined; Palbo, palbociclib; PCNA, proliferating cell nuclear antigen; PDX, patient-derived xenograft; PgR, progesterone receptor; PIK3CA, phosphatidylinositol 3-kinase subunit α; Rb, retinoblastoma; S6, Ribosomal protein S6; veh, vehicle; wt, wild-type […]
An untreated plate was read on […]

ST3632 ESR1wt PDX = assay: Efficacy in ST3632 PDX model; format: in vivo, mice; conditions: oral camizestrant 10 mg/kg daily, palbociclib 50 mg/kg daily, abemaciclib 50 mg/kg daily
ST1799/HI/PBR PDX = assay: Efficacy in palbociclib-resistant ST1799/HI/PBR PDX model; format: in vivo, mice; conditions: camizestrant 10 mg/kg daily, palbociclib 50 mg/kg, abemaciclib 50 mg/kg, capivasertib 130 mg/kg, 40 days
Method: For all PDX models, tumors were measured twice weekly; changes in tumor volume and growth inhibition were determined by bilateral Vernier caliper measurement (length x width). Length was the longest diameter across the tumor and width the corresponding perpendicular.
For efficacy studies, animals were randomized into treatment groups and dosing started once tumor volume reached 150–300 mm^3. Details of efficacy studies, and group sizes and treatments are described in corresponding figure legends. PDX models in Fig. 6 and Supplementary Fig. S1 were part of the multi-arm study (with arms irrelevant to this publication) with common control monotherapy arms (e.g., the vehicle-treated group).
(TV) was calculated using the formula: TV (mm3) = (3.142 x max (length:width) x min […]
established tumors were removed from two donor mice and dissected into 3x3x3 mm pieces in RPMI 1640 media. […] TV was calculated as TV (mm3) = width2 x length x 0.52.
For the combination studies in the CTC174 PDX model (hormone-independent), established tumors were removed from donor mice and dissected into 3x3x3 mm pieces in RPMI 1640 media. […] TV was calculated using the formula: TV (mm3) = (3.142 x max (length:width) x min (length:width) x min (length:width))/6,000, or (mm3) = width2 x length x 0.52 for the CTC174 study. […]

C[C@@H]1Cc2c([nH]c3ccccc23)[C@@H](c2c(F)cc(/C=C/C(=O)O)cc2F)N1CC(C)(C)F [AZD9496]
estradiol-driven gene expression (ER transcriptional activity) [1]: antagonized all estradiol-driven gene expression | ER agonism (PgR expression as a marker) [2]: evident in endometrial in vitro and in vivo models | cell growth inhibition (CAMA-1 cells): weaker antiproliferative effects

CCN1CCN(Cc2ccc(Nc3ncc(F)c(-c4cc(F)c5nc(C)n(C(C)C)c5c4)n3)nc2)CC1 [abemaciclib, reference compound]
sensitivity of palbociclib-resistant lines [3]: sensitive | reduction of relative TV compared with the vehicle (ST3632 ESR1wt PDX): 46%

NC1(C(=O)N[C@@H](CCO)c2ccc(Cl)cc2)CCN(c2nc[nH]c3nccc2-3)CC1 [capivasertib, reference compound]
tumor growth (ST1799/HI/PBR PDX): could not completely arrest tumor growth

CC(=O)c1c(C)c2cnc(Nc3ccc(N4CCNCC4)cn3)nc2n(C2CCCC2)c1=O [palbociclib]
reduction of relative TV compared with the vehicle (ST3632 ESR1wt PDX): 0%
